pIC50: −log10 of the molar value.
Target: human TLR7 (Homo sapiens (Human), UniProt Q9NYK1)
Experiment: Test for evaluating the inhibition of the activation of human TLR7 (SEAP reporter, TLR7/NF-κB/SEAPorter HEK293 cell)
Assay type: cell-based
Details: R-848 200 nmol/L; for inhibitory effect against TLR7 in the test for evaluating inhibition of the activation of TLR7: SEAP activity, result in words; for pIC50: SEAP reporter
Outline: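 The readout is secreted alkaline phosphatase under NF-κB response-element control in TLR7/NF-κB/SEAPorter HEK293 cells, which stably express full-length human TLR7. Cells were plated at 5×10^4 per well and grown overnight at 37° C, 5% CO2, in DMEM/10% FBS/blasticidin.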

human TLR7, sequence (Q9NYK1 27-1049): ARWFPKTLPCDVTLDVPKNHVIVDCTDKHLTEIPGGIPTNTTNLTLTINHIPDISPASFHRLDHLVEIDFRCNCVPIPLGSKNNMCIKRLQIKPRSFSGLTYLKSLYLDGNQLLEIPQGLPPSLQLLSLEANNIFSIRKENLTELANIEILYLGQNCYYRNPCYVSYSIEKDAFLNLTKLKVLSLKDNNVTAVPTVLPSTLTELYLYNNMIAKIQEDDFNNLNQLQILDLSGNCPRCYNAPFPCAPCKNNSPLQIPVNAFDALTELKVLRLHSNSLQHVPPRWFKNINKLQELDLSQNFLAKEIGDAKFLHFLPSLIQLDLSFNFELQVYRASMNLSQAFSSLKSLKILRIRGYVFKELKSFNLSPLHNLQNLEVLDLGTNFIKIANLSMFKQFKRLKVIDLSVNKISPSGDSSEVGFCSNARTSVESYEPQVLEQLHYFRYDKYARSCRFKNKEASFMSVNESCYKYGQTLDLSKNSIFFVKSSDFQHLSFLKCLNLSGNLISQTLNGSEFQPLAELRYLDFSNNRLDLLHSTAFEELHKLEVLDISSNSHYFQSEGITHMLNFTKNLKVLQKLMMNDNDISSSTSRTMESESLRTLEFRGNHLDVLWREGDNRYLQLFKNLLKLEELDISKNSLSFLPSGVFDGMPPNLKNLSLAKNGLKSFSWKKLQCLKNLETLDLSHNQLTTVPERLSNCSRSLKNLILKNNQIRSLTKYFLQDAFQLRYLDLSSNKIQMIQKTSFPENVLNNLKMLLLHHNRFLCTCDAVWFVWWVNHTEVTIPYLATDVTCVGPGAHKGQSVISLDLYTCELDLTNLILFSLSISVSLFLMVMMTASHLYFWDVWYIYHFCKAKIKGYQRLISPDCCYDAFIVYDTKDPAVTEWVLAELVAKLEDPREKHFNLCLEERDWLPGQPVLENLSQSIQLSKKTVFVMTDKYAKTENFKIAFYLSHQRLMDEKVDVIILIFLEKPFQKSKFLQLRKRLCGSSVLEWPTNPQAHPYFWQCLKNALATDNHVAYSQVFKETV

inhibitory effect against TLR7 in the test for evaluating inhibition of the activation of TLR7	pIC50	Structure (SMILES)
potent inhibitory effect against TLR7	7.07	COc1nc(C)c2nc(-c3cncc(F)c3)n(Cc3ccc(CN4C[C@@H]5C[C@H]4CN5)cc3)c2n1 [Example 125]
potent inhibitory effect against TLR7	7.80	CCOc1nc(N)c2nc(-c3cncc(F)c3)n(Cc3ccc(C4CCN(C(=O)CN(C)C)CC4)cc3)c2n1 [Example 148, 1-[4-(4-{[6-Amino-2-ethoxy-8-(5-fluoropyridin-3-yl)-9H-purin-9-yl]methyl}phenyl)piperidin-1-yl]-2-(dimethylamino)ethanone]
–	7.03	CCOc1nc(C)c2nc(-c3cncc(F)c3)n(Cc3cnn(CC4CNCCO4)c3)c2n1 (stereo not drawn) [Example 425]
–	7.00	CCOc1nc(N)c2nc(-c3cncc(F)c3)n(Cc3ccc(CN4CCOCC4)cc3)c2n1 [Example 97]
–	6.58	CCOc1nc(C)c2nc(-c3cncc(F)c3)n(Cc3cnn(CC4CN(C)CCO4)c3)c2n1 (stereo not drawn) [Example 272]
potent inhibitory effect against TLR7	7.52	CCOc1nc(N)c2nc(-c3cncc(F)c3)n(Cc3ccc(OCCN4CCCC4)cc3)c2n1 [Example 47, 2-Ethoxy-8-(5-fluoropyridin-3-yl)-9-{4-[2-(pyrrolidin-1-yl)ethoxy]benzyl}-9H-purine-6-amine]
–	5.55	CCOc1nc(N)c2nc(-c3cncc(C(F)F)c3)n(Cc3ccccc3)c2n1 [Example 30]
–	5.57	CCOc1nc(N)c2nc(-c3cncc(F)c3)n(Cc3cnn(C)c3)c2n1 [Example 37]
–	5.96	CCCCOc1nc(N)c2nc(-c3cncc(Cl)c3)n(Cc3ccccc3)c2n1 [Example 17]
potent inhibitory effect against TLR7	7.60	CCOc1nc(C)c2nc(-c3cncnc3)n(Cc3ccc(CN4C[C@@H]5C[C@H]4CN5C)cc3F)c2n1 [Example 312, 2-ethoxy-9-(2-fluoro-4-{[(1S,4S)-5-methyl-2,5-diazabicyclo[2.2.1]hept-2-yl]methyl}benzyl)-6-methyl-8-(pyrimidin-5-yl)-9H-purine]
–	5.60	COCCOc1nc(N)c2nc(-c3cncc(F)c3)n(Cc3ccc(CN(C)C)cc3)c2n1 [Example 87]
–	6.03	CN(C)Cc1ccc(Cn2c(-c3cncc(F)c3)nc3c(N)nc(OCC(F)F)nc32)cc1 [Example 159]
–	5.77	CCOc1nc(N)c2nc(-c3cncc(COC)c3)n(Cc3ccc(CN(C)C)cc3)c2n1 [Example 34]
–	6.12	CCOc1nc(N)c2nc(-c3cncc(F)c3)n(Cc3ccccc3F)c2n1 [Example 44]
–	6.68	CCOc1nc(C)c2nc(-c3cncc(F)c3)n(Cc3ccccc3OC)c2n1 [Example 373]
potent inhibitory effect against TLR7	7.37	CCOc1nc(N)c2nc(-c3cncc(F)c3)n(Cc3ccc(CN4C[C@@H]5C[C@H]4CN5C4CC4)cc3)c2n1 [Example 130]
–	6.80	CCOc1nc(C)c2nc(-c3cncc(F)c3)n(Cc3ccc(Br)cc3C#N)c2n1 [Example 339]
–	6.30	COc1nc(N)c2nc(-c3cncc(F)c3)n(Cc3ccc(CN(C)C)cc3)c2n1 [Example 150]
–	6.12	CCOc1nc(N)c2nc(-c3cncc(F)c3)n(Cc3ccc(CN4CCCC4)cc3)c2n1 [Example 104]
–	7.00	COCCOc1nc(C)c2nc(-c3cncc(F)c3)n(Cc3ccc(CN4CCN(C)CC4)cc3)c2n1 [Example 115]
–	7.00	CCOc1nc(C)c2nc(-c3cncc(F)c3)n(Cc3cnn(CC4COCCN4C)c3)c2n1 (stereo not drawn) [Example 274]
–	6.27	CCOc1nc(N)c2nc(-c3cncc(F)c3)n(Cc3ccc(CN(C)C)cc3)c2n1 [Example 80, 9-{4-[(Dimethylamino)methyl]benzyl}-2-ethoxy-8-(5-fluoropyridin-3-yl)-9H-purine-6-amine]
potent inhibitory effect against TLR7	8.15	CCOc1nc(C)c2nc(-c3cncc(F)c3)n(Cc3ccc(CN4C[C@@H]5C[C@H]4CN5CC)cc3)c2n1 [Example 131, 2-ethoxy-9-(4-{[(1S,4S)-5-ethyl-2,5-diazabicyclo[2.2.1]hept-2-yl]methyl}benzyl)-8-(5-fluoropyridin-3-yl)-6-methyl-9H-purine]
–	6.45	CCOc1nc(N)c2nc(-c3cncc(F)c3)n(Cc3cc(F)ccc3F)c2n1 [Example 240]
potent inhibitory effect against TLR7	7.10	CCOc1nc(N)c2nc(-c3cncc(F)c3)n(Cc3ccc(CN4C[C@@H]5C[C@H]4CO5)cc3)c2n1 [Example 96]
potent inhibitory effect against TLR7	7.02	CCOc1nc(N)c2nc(-c3cncc(F)c3)n(Cc3ccc(CN4CCC4)cc3)c2n1 [Example 100]
potent inhibitory effect against TLR7	7.64	CCOc1nc(C)c2nc(-c3cncc(F)c3)n(Cc3cnn(CC4CCCN(C)C4)c3)c2n1 (stereo not drawn) [Example 277]

Continued, compound first:

Structure (SMILES)	inhibitory effect against TLR7 in the test for evaluating inhibition of the activation of TLR7	pIC50
COc1nc(C)c2nc(-c3cncc(C#N)c3)n(Cc3ccc(C4CN5CCC4CC5)cc3F)c2n1 (stereo not drawn) [Example 340]	potent inhibitory effect against TLR7	7.59
COc1nc(C)c2nc(-c3cncc(F)c3)n(Cc3cc(Br)ccc3F)c2n1 [Example 326]	–	6.41
COc1ccc(Cn2c(-c3cncc(F)c3)nc3c(C)nc(OC)nc32)c(F)c1 [Example 405, 9-(2-fluoro-4-methoxybenzyl)-8-(5-fluoropyridin-3-yl)-2-methoxy-6-methyl-9H-purine]	–	5.47
CCOc1nc(C)c2nc(-c3cncc(F)c3)n(Cc3ncc(C4CN5CCC4CC5)cc3F)c2n1 (stereo not drawn) [Example 379]	–	6.30
CCOc1nc(C)c2nc(-c3cncc(F)c3)n(Cc3cnn(CCCN(C)C)c3)c2n1 [Example 245]	–	6.70
COc1nc(C)c2nc(-c3cncc(F)c3)n(Cc3ccc(OCC4CN(C(=O)OC(C)(C)C)C4)cc3F)c2n1 [Example 419]	–	6.15
CCOc1nc(C)c2nc(-c3cncc(F)c3)n(Cc3ccc(Br)cc3OC)c2n1 [Example 325]	–	5.82
COc1nc(C)c2nc(-c3cncc(F)c3)n(Cc3ccc(C4CN5CCC4CC5)cc3)c2n1 (stereo not drawn) [Example 165, 9-[4-(1-Azabicyclo[2.2.2]oct-3-yl)benzyl]-8-(5-fluoropyridin-3-yl)-2-methoxy-6-methyl-9H-purine]	potent inhibitory effect against TLR7	7.80
CCOc1nc(C)c2nc(-c3cncc(F)c3)n(Cc3ncc(C4=CN5CCC4CC5)cc3F)c2n1 [Example 359]	–	6.07
CCOc1nc(C)c2nc(-c3cncc(F)c3)n(Cc3cnc(CC4CCN(C(=O)OC(C)(C)C)CC4)cc3OC)c2n1 [Example 369]	–	5.77
COc1cncc(-c2nc3c(C)nc(OC)nc3n2Cc2ccc(C3CN4CCC3CC4)cc2F)c1 (stereo not drawn) [Example 302]	potent inhibitory effect against TLR7	7.17
CCOc1nc(C)c2nc(-c3cncc(F)c3)n(Cc3ccc(C4CN5CCC4CC5)cc3F)c2n1 (stereo not drawn) [Example 172]	potent inhibitory effect against TLR7	8.52
COc1nc(C)c2nc(-c3cccnc3)n(Cc3ccc(O[C@H]4C[C@H]5CC[C@@H](C4)N5)cc3F)c2n1 [Example 437]	potent inhibitory effect against TLR7	7.80
CCCCOc1nc(N)c2nc(-c3cccc(Cl)c3)n(Cc3ccccc3)c2n1 [Example 13]	–	5.03
COc1nc(C)c2nc(-c3cccnc3)n(Cc3ccc(OC4CC5CCC(C4)N5C)cc3F)c2n1 (stereo not drawn) [Example 297, 9-(2-fluoro-4-{[(3-endo)-8-methyl-8-azabicyclo[3.2.1]oct-3-yl]oxy}benzyl)-2-methoxy-6-methyl-8-(pyridin-3-yl)-9H-purine]	potent inhibitory effect against TLR7	7.30
CCCCOc1nc(N)c2nc(-c3cnc(N)nc3)n(Cc3ccccc3)c2n1 [Example 6]	–	5.02
COc1nc(C)c2nc(-c3cncc(F)c3)n(Cc3ccc(O[C@@H]4C[C@H]5CC[C@@H](C4)N5C)cc3F)c2n1 [Example 418, 9-(2-fluoro-4-{[(3-exo)-8-methyl-8-azabicyclo[3.2.1]oct-3-yl]oxy}benzyl)-8-(5-fluoropyridin-3-yl)-2-methoxy-6-methyl-9H-purine]	potent inhibitory effect against TLR7	7.72
COc1nc(C)c2nc(-c3cncc(F)c3)n(Cc3ccc(OC4CCN(C)CC4)cc3F)c2n1 [Example 411, 9-{2-fluoro-4-[(1-methylpiperidin-4-yl)oxy]benzyl}-8-(5-fluoropyridin-3-yl)-2-methoxy-6-methyl-9H-purine]	potent inhibitory effect against TLR7	7.59
COc1nc(C)c2nc(-c3cncc(F)c3)n(Cc3cnn(CCN(C)C)c3)c2n1 [Example 250]	–	6.70
CCOc1nc(N)c2nc(-c3cncc(F)c3)n(Cc3ccc(O[C@H]4CN5CCC4CC5)cc3)c2n1 [Example 67]	potent inhibitory effect against TLR7	7.29
COc1nc(C)c2nc(-c3cncc(F)c3)n(Cc3ccc(C4CCN(C(=O)OC(C)(C)C)CC4)cc3F)c2n1 [Example 385]	–	7.03
CCOc1nc(N)c2nc(-c3cncc(F)c3)n(Cc3ccc(C4CN5CCC4CC5)cc3)c2n1 (stereo not drawn) [Example 46]	potent inhibitory effect against TLR7	7.60
COc1nc(C)c2nc(-c3cncc(F)c3)n(Cc3cccc(C4=CN5CCC4CC5)c3)c2n1 [Example 364]	–	7.96

— patent publication US10703755B2, “Substituted purine derivative” (SUMITOMO DAINIPPON PHARMA CO., LTD., priority 2016, dated 2020)
